Experimental data taken from patent US20220267280A1, “SMALL MOLECULE STIMULATORS OF THE CORE PARTICLE OF THE PROTEASOME” (Purdue Research Foundation, priority 2019, published 2022).
Entries after “also recorded” stand apart in the source; their conditions may differ.

Columns and labels:
20S CP [1] = test: standard FRET assay with the standard 20S CP; assay type: biochemical; conditions: for % activity increase (increase in 20S proteasome activity): derivative at 25 μM, in triplicate
Description: (§1) Miconazole was discovered as a stimulator of the 20S CP during a screen of the NIH Clinical Collection (NCC), using our previously described FRET assay.^15,21 However, this screen utilized a modulated FRET peptide that substituted an aspartic acid for the phenylalanine. Hydrolysis of the FRET peptide produces a fluorescent signal that can be monitored over time to determine the activity level of the 20S CP. Screening the NCC was performed in 384-well plates on a Tecan plate reader, monitoring the emission wavelength of the FRET peptide over a 1 hr period. Each compound was screened at a final concentration of 25 μM in singlet. A linear regression was performed for the change in fluorescence over time, producing a slope. This value for each compound was then compared to that of a DMSO control (20S CP basal level activity), which was included in triplicate for each plate. Primary hit compounds were determined to be those with a slope 50% greater than that of the DMSO control.
All primary hits were then validated in triplicate, using this reporter and the standard FRET reporter. Following triplicate validation, the hits were purchased from other sources and tested once again for the effect of each on the 20S CP, using the standard FRET assay (FIG. 2A).
Following a mechanistic analysis of miconazole, a dose-response study was performed using the FRET assay and the standard 20S CP.
Each derivative of miconazole is tested at 25 μM in triplicate, using our standard FRET assay. Included in each plate is 25 μM miconazole in triplicate as a positive control. This is also performed to determine how well a derivative compares to the original compound. Derivatives that enhance 20S CP activity are then used for further study.

20S CP [2] = test: screen of the NIH Clinical Collection, FRET assay with modulated FRET peptide; assay type: biochemical; conditions: 25 μM, singlet, 1 hr
Description: as §1

immunoproteasome (iCP) = test: FRET assay using the immunoproteasome; assay type: biochemical; conditions: 25 μM
Description: (§2) In order to determine the general mechanism of action of miconazole (i.e. allosteric modulator of a hydrolysis activity or “gate-opener”), a series of FRET assays were performed with 25 μM miconazole, using the immunoproteasome (iCP) and the 26S proteasome. The immunoproteasome contains a high degree of similarity to the standard 20S CP (sCP); however, the catalytic β-subunits have been exchanged, leading to a variation in the hydrolysis activities of this protease compared to the standard 20S CP.^22 The gates of both the immunoproteasome and the 20S CP are identical. The 26S proteasome is the standard 20S CP that has been capped by the 19S regulatory particle, which binds the a-ring of the 20S CP and creates an open-gate conformation.^23 Gate-openers of the 20S CP should still impact the activity of the immunoproteasome; however, because the gate is precluded in the 26S proteasome, this type of stimulator is believed to be ineffective with this isoform of the proteasome Similarly, a stimulator that is able to enhance at least one of the catalytic sites of the 20S CP specifically may be ineffective with the immunoproteasome, as this isoform contains different catalytic subunits than the standard 20S CP. This type of stimulator will still impact the activity of the 26S proteasome, as it contains the standard 20S CP.

26S proteasome = test: FRET assay using the 26S proteasome; assay type: biochemical; conditions: 25 μM
Description: as §2

20S CP [3] = test: GFP-α-synuclein fusion cell assay, Western blot for GFP; assay type: cell-based; conditions: for alpha-synuclein degradation (quantitation of gel bands): 25 μM for 16 hrs, duplicate
From the text: In this study, HEK-293T cells are transiently transfected to express a GFP-α-synuclein construct. α-Synuclein is a known substrate of the 20S CP, whereas GFP is too large and well-folded to enter the gate of the 20S CP for degradation. Therefore, 20S CP-mediated hydrolysis of this construct degrades the α-synuclein portion, leaving behind free GFP. […] After this time period, the cells were lysed and analyzed by Western blot for GFP. Because 20S CP-mediated hydrolysis of this fusion protein can only degrade the α-synuclein portion, the Western blot produces two clear bands, corresponding to the full fusion protein (GFP-α-synuclein) and free GFP. Quantitative analysis is performed for each sample, quantifying the relative densities of each band. The ratio of free GFP to the GFP-α-synuclein fusion was calculated. This calculated ratio of the miconazole-treated cell lysates was compared to the control (DMSO) to determine a change in 20S CP-mediated degradation.
We perform similar studies to those described above for each derivative that warrants further evaluation, including: a mechanistic analysis (FRET assay using the immunoproteasome and 26S proteasome), dose-response study to determine the EC50 of each compound, and the GFP-α-synuclein cell assay to examine the effectiveness of the miconazole derivative in cells. For the cell assay, miconazole is included as a positive control.

% activity increase (increase in 20S proteasome activity) (20S CP [1]) [%]	Structure (SMILES)	other results
232	FC(F)(F)c1ccc(COC(Cn2ccnc2)c2ccc(Cl)cc2Cl)cc1 (stereo not shown) [MDX2]	alpha-synuclein degradation (quantitation of gel bands) (20S CP [3]): increase in alpha-synuclein degradation
0	CC(C)(C)c1ccc(C[n+]2ccn(CC(OCc3ccc(Cl)cc3Cl)c3ccc(Cl)cc3Cl)c2)cc1.[Br-] (stereo not shown) [MDX3]	–
248	CC(C)(C)c1ccc(COC(Cn2ccnc2)c2ccc(Cl)cc2Cl)cc1 (stereo not shown) [MDX1]	alpha-synuclein degradation (quantitation of gel bands) (20S CP [3]): increase in alpha-synuclein degradation

Second part, the compound before the results:

Structure (SMILES)	% activity increase (increase in 20S proteasome activity) (20S CP [1]) [%]	other results
Clc1ccc(C(Cn2cccc2)OCc2ccccc2)c(Cl)c1 (stereo not shown) [MD3]	0	–
Fc1ccc(COC(Cn2cccc2)c2ccc(Cl)cc2Cl)c(F)c1 (stereo not shown) [MD2]	0	–
Clc1ccc(COC(Cn2ccnc2)c2ccc(Cl)cc2Cl)c(Cl)c1 (stereo not shown) [miconazole, reference compound]	–	effect on standard 20S CP (sCP) activity (20S CP [1]; 25 μM): effective stimulator; also recorded: stimulatory effect; EC50 (20S CP [1]; read-out: EC50 (effective concentration that induces 50% of its maximum stimulatory effect), dose-response, standard 20S CP (sCP)): 20 µM; increase of 20S CP activity (slope vs DMSO control) (20S CP [2]): 299%; effect on immunoproteasome (iCP) activity (immunoproteasome (iCP)): effective stimulator; also recorded: stimulatory effect; effect on 26S proteasome activity (26S proteasome): no effect; enhancement of degradation of α-synuclein over the DMSO control (ratio of free GFP to GFP-α-synuclein) (20S CP [3]; HEK-293T cells, 25 μM, 24 hr): 200-300%
C#CC[n+]1ccn(CC(OCc2ccc(Cl)cc2Cl)c2ccc(Cl)cc2Cl)c1.[Br-] (stereo not shown) [MD8]	0	–
Clc1ccc(C(Cn2ccnc2)OCc2ccccc2Cl)c(Cl)c1 (stereo not shown) [MD5]	122	–
Clc1ccc(COC(Cn2ccnc2)c2ccc(Cl)cc2Cl)cc1 (stereo not shown) [MD7]	0	–
Cc1ccc(COC(Cn2cccc2)c2ccc(Cl)cc2Cl)c(C)c1 (stereo not shown) [MD1]	0	–
Clc1ccc(C(Cn2ccnc2)OCc2c(Cl)cccc2Cl)c(Cl)c1 (stereo not shown) [MD6]	171	–
Clc1ccc(C(Cn2cccc2)OCc2ccc(Br)cc2Br)c(Cl)c1 (stereo not shown) [MD4]	0	–
